Results on 9 molecules are retold here after US8084621B2, “3-Pyrrolo[b]cyclohexylene-2-dihydroindolinone derivatives and uses thereof” (Jiangsu Simcere Pharmaceutical R&D Co. Ltd., priority 2006, dated 2011).

The target in this experiment is T1, PDGFR-β (Homo sapiens, UniProt P09619).
T1 construct: purchased Cell Signaling Technology CO
T1 sequence (P09619 33-1106): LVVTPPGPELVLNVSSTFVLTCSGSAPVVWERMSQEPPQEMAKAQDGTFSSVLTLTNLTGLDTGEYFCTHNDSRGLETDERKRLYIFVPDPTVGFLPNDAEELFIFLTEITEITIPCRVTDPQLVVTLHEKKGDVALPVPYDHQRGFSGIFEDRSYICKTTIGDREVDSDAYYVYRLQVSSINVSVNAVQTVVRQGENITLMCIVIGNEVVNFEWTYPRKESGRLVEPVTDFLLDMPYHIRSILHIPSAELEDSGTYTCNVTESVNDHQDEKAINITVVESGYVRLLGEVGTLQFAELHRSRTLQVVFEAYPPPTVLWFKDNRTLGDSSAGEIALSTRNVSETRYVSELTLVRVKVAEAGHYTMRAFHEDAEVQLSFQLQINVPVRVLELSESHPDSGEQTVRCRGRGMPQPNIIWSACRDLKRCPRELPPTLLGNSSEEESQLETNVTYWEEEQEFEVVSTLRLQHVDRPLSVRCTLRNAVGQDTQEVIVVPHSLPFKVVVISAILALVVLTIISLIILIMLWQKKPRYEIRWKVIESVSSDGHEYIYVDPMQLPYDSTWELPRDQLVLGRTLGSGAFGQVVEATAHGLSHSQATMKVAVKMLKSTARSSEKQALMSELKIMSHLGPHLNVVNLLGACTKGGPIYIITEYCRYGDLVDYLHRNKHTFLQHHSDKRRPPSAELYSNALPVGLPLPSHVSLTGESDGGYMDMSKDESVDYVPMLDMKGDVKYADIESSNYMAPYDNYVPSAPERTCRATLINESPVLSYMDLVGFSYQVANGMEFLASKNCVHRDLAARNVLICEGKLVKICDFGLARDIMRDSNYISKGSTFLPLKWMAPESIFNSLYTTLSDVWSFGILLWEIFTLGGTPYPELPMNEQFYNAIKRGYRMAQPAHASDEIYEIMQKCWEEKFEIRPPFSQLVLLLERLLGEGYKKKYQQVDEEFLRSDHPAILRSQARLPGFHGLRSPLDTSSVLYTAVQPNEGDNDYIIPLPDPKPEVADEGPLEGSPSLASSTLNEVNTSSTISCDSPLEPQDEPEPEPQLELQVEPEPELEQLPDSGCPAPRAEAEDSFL
The experiment can be described thus: Protein kinase activity by ELISA in vitro, PDGFR-β. The format is biochemical. The settings on record: concentration of 10^−7 mol/L; read-out: kinase inhibition ratio, PDGFR-β. From the text: An ELISA (Enzyme-Linked Immunosorbent Sandwich Assay) procedure may be used to detect and measure the level of protein tyrosine kinase activity. Tyrosine kinases such as VEGFR-2, PDGFR-β and c-Kit etc. catalyze the phosphorylation reaction of ATP and biotin-labeled peptide substrate, which will be ceased when the kinase activity is inhibited. According to the principle of ELISA, a monoclonal antibody can react with phosphorylated substrate specially, so biotin-labeled substrate is binded to streptavidin-coated ELISA plate, and then binded to a HRP-labeled goat anti-mouse antibody. Finally TMB is added for a color reaction and the value of A450-A630 is read by ELISA plate reader. The OD value can reflect the inhibitory activity of the VEGFR-2, PDGFR-β, c-Kit tyrosine kinases etc. treated with the test compounds at the different concentrations. So, the assay may be used to measure the inhibition ratio of the compounds for the tyrosine kinase activity. Similar assays can be designed along the same lines for any PK using techniques well known in the art. Tyrosine kinases such as VEGFR-2, PDGFR-β and c-Kit etc. catalyze the phosphorylation reaction of ATP and biotin-labeled peptide substrate, which will be ceased when the kinase activity is inhibited. According to the principle of ELISA, a monoclonal antibody can react with phosphorylated substrate specially, so biotin-labeled substrate is binded to streptavidin-coated ELISA plate, and then binded to a HRP-labeled goat anti-mouse antibody. Finally TMB is added for a color reaction and the value of A450-A630 is read by ELISA plate reader. The OD value can reflect the inhibitory activity of the VEGFR-2, PDGFR-β c-Kit tyrosine kinases treated with the test compounds at the different concentrations. So, the assay may be used to measure the inhibition ratio of the compounds for the tyrosine kinase activity. Similar assays can be designed along the same lines for any PK using techniques well known in the art. VEGF Receptor 2, PDGF Receptor-beta and c-kit kinase assay kit (include kinase, 1.25M DTT, substrate peptide, 10 mM ATP, P-[…] Mouse antibody, 4×HTScan tyrosine kinase buffer), Cell Signaling Technology CO.; HRP labeled goat anti mouse IgG, Protein Tech CO.; TMB, Pierce CO.; Streptavidin Microtitration Plate, Greiner Bio-one CO.; Infinite M200 Reader, Tecan CO. 1.2.1 Immediately transfer enzyme from -80° C. to ice. Allow enzyme to thaw on ice then at 4° C. and centrifugate transiently to the bottom of centrifuge tube, then lay back on ice quickly 1.2.2 Add 10 μl of DTT (1.25 M) to 2.5 ml of 4×HTScan tyrosine kinase buffer (240 mM HEPES pH 7.5, 20 mM MgCl2, 20 mM MnCl2, 12 μM Na3VO4). Transfer 0.6 ml of DTT/Kinase buffer to each enzyme tube to make 4× reaction Cocktail. Incubate 12.5 μl of the 4× reaction cocktail with 12.5 μl/well prediluted compound of interest for 5 minutes at room temperature, and set blank control, free-enzyme control, negative control and positive control. 1.2.3 Add 10 μl 10 mM ATP to 1.25 ml 6 μM substrate peptide. Dilute the mixture with dH20 to 2.5 ml to make 2×ATP/substrate cocktail. Add 25 μl of 2×ATP/substrate cocktail to 25 μl/well preincubated reaction cocktail/compound. Incubate reaction plate at room temperature for 30 minutes. 1.2.4 Add 50 μl/well stop Buffer (50 mM EDTA, pH 8) to stop the reaction. Transfer 25 μl of each reaction and 75 μl dH2O/well to a 96-well streptavidin coated plate and incubate at room temperature for 60 minutes. Wash three times with 200 μl/well PBS/T(1×PBS, 0.05% Tween-20). 1.2.5 Dilute primary antibody, Phospho-Tyrosine mAb (P-[…]), 1:500 in PBS/T with 1% BSA. Add 100 μl/well primary antibody. Incubate at room temperature for 60 minutes. Wash three times with 200 μl/well PBS/T(1×PBS, 0.05% Tween-20). 1.2.6 Prepare appropriate dilution of HRP labeled secondary antibody, 1:500 in PBS/T with 1% BSA. Add 100 μl/well secondary antibody solution. Incubate at room temperature for 30 minutes. […]
Regarding `Cc1[nH]c2c(c1C(=O)NCCCN(C)C)CCC/C2=C1/C(=O)Nc2ccc(Cl)cc21` [I-7, N-(3-(dimethylamino)propyl)-2-methyl-7-[1,2-dihydro-5-chloro-2-oxo-3H-indol-(Z)-3-ylidene]-4,5,6,7-tetrahydro-1H-indole-3-carboxamide], the inhibition at 0.1 µM was 86%. Under `CCN(CC)CCNC(=O)c1c(C)[nH]c2c1CCC/C2=C1/C(=O)Nc2ccc(C)cc21` [I-4, N-(2-(diethylamino)ethyl)-2-methyl-7-[1,2-dihydro-5-methyl-2-oxo-3H-indol-(Z)-3-ylidene]-4,5,6,7-tetrahydro-1H-indole-3-carboxamide] stands 86%. Under `CCN(CC)CCNC(=O)c1c(C)[nH]c2c1CCC/C2=C1/C(=O)Nc2ccc(Cl)cc21` [I-3, N-(2-(diethylamino)ethyl)-2-methyl-7-[1,2-dihydro-5-chloro-2-oxo-3H-indol-(Z)-3-ylidene]-4,5,6,7-tetrahydro-1H-indole-3-carboxamide] stands 88%; under `CCN(CC)CCNC(=O)c1c(C)[nH]c2c1CCC/C2=C1/C(=O)Nc2ccc(F)cc21` [I-2, N-(2-(diethylamino)ethyl)-2-methyl-7-[1,2-dihydro-5-fluoro-2-oxo-3H-indol-(Z)-3-ylidene]-4,5,6,7-tetrahydro-1H-indole-3-carboxamide], 90%; under `CCN(CC)CCNC(=O)c1c(C)[nH]c2c1CCC/C2=C1/C(=O)Nc2ccccc21` [I-5, N-(2-(diethylamino)ethyl)-2-methyl-7-[1,2-dihydro-2-oxo-3H-indol-(Z)-3-ylidene]-4,5,6,7-tetrahydro-1H-indole-3-carboxamide], 87%. Under `Cc1[nH]c2c(c1C(=O)NCC(O)CN1CCCC1)CCC/C2=C1/C(=O)Nc2ccccc21` (stereo not drawn) [I-70, N-(2-hydroxy-3-(pyrrolidin-1-yl)propyl)-2-methyl-7-[1,2-dihydro-2-oxo-3H-indol-(Z)-3-ylidene]-4,5,6,7-tetrahydro-1H-indole-3-carboxamide] stands 85%; under `CCN(CC)CC(O)CNC(=O)c1c(C)[nH]c2c1CCC/C2=C1/C(=O)Nc2ccccc21` (stereo not drawn) [I-63, N-(3-(diethylamino)-2-hydroxypropyl)-2-methyl-7-[1,2-dihydro-2-oxo-3H-indol-(Z)-3-ylidene]-4,5,6,7-tetrahydro-1H-indole-3-carboxamide], 87%; under `Cc1[nH]c2c(c1C(=O)NCCO)CCC/C2=C1/C(=O)Nc2ccccc21` [I-8, N-(2-hydroxyethyl)-2-methyl-7-[1,2-dihydro-2-oxo-3H-indol-(Z)-3-ylidene]-4,5,6,7-tetrahydro-1H-indole-3-carboxamide], 89%. Consider `Cc1[nH]c2c(c1C(=O)NCCN(C)C)CCC/C2=C1/C(=O)Nc2ccc(F)cc21` [I-6, N-(2-(dimethylamino)ethyl)-2-methyl-7-[1,2-dihydro-5-fluoro-2-oxo-3H-indol-(Z)-3-ylidene]-4,5,6,7-tetrahydro-1H-indole-3-carboxamide], for which the inhibition at 0.1 µM is 85%.
